# Data as given in patent publication US20250270159A1, “1-(CYCLOBUTANEMETHYLIDENE)-2, 4, 5-TRIMETHOXYBENZENE COMPOUND AND PREPARATION METHOD AND USE THEREOF” (CHENGDU XINRUI TAIKANG TECHNOLOGY CO., LTD., priority 2023, published 2025).
# Assays:
# [1] = test system: reduced glutathione (GSH); experiment: GSH content in striatum of PD mice; type: in vivo, C57 mice; details: Group D, CTMB 20 mg/kg ip, after 4 weeks, injured side
# Protocol: (§1) The mice were randomly divided into a sham operation group (group S, given a blank emulsion with a volume equal to that of the administered group), a model group (group M, given a blank emulsion with a volume equal to that of the administered group), a CTMB group (20 mg/kg, group D), and a levodopa group (levodopa: benserazide hydrochloride=4:1, 12 mg/kg, group L), each group included 10-12 mice, and all of them were administered intraperitoneally.
# Malondialdehyde (MDA) is a commonly used indicator of membrane lipid peroxidation, reduced glutathione (GSH) is one of the most commonly used non-enzymatic indicators of antioxidant substances, and superoxide dismutase (SOD) is a common indicator of antioxidant enzymes. After completing the evaluation of motor function after 4 weeks of drug administration, the mice were deeply anesthetized and perfused with 20 mL of saline via the heart. The brain was rapidly severed to isolate the striatal region on the injured side (right side), weighed, and placed into a 1.5 mL EP tube, and homogenized at low temperature by adding phosphate-buffered saline (PBS) at the ratio of a weight of animal tissues (g) to a volume of homogenization medium (mL) of 1:9. […]
# [2] = test system: Tyrosine hydroxylase (TH) protein expression; experiment: TH protein expression by immunohistochemistry in substantia nigra of PD mice; type: in vivo, C57 mice; details: Group D, CTMB 20 mg/kg ip, after 4 weeks of administration
# Protocol: as §1
# After completing the evaluation of motor function after 4 weeks of drug administration, the mice were deeply anesthetized, perfused with 20 mL of saline and 20 mL of 4% paraformaldehyde via the heart, and the brains were rapidly severed and extracted from the head, which were then preserved and fixed in 4% paraformaldehyde for 72 h after removal, and then embedded with paraffin to prepare the slices with a thickness of 4 μm for subsequent pathological and histological studies.
# Tyrosine hydroxylase (TH) protein expression was detected by immunohistochemistry. […]
structure (smiles),measurement,setting,value
"COc1cc(OC)c(OC)cc1C=C1CCC1 [CTMB, 1-(cyclobutylidenemethyl)-2,4,5-trimethoxybenzene]",GSH,[1],46.38 ± 6.94 μmol/g protein
same,"TH-positive neurons (a percentage of TH-positive neurons to uninjured side, %)",[2],"39.9 ± 12.1^###,***^, && %"
